{"source": "patent US20060078874A1", "about": "“Use of nuclear hormone receptors” (Novo Nordisk A/S, priority 2002, published 2006)", "key": {"[1]": {"system": "cumulus enclosed oocytes (CEO)", "test": "Oocyte maturation assay, cumulus enclosed oocytes (CEO test)", "assay_type": "cell-based, mouse", "experimental": "(§1) An Agonistic Oocyte Assay Can be Performed as Follows: Oocytes were obtained from immature female mice (C57BL/6J×DBA/2J F1-hybrid, Bomholtgaard, Denmark) weighing 13-16 grams, that were kept under controlled temperature (20-22° C.), light (lights on 06.00-18.00) and relative humidity (50-70%). The mice received an intra-peritoneal injection of 0.2 ml gonadotropins (Gonal-F, Serono) containing 20 IU FSH and 48 hours later the animals were killed by cervical dislocation. The ovaries were dissected out and the oocytes were isolated in Hx-medium (see below) under a stereo microscope by manual rupture of the follicles using a pair of 27 gauge needles. Spherical oocytes displaying an intact germinal vesicle (hereinafter designated GV) were divided in cumulus enclosed oocytes (hereinafter designated CEO) and naked oocytes (hereinafter designated NO) and placed in α-minimum essential medium (α-MEM without ribonucleosides, Gibco BRL, Cat. No. 22561) supplemented with 3 mg/ml bovine serum albumin (BSA, Sigma Cat. No. A-7030), 5 mg/ml human serum albumin (HSA, Statens Seruminstitute, Denmark), 0.23 mM pyruvate (Sigma, Cat. No S-8636), 2 mM glutamine (Flow Cat. No. 16-801), 100 IU/ml penicillin and 100 μg/ml streptomycin (Flow, Cat No. 16-700). This medium was supplemented with 3 mM hypoxanthine (Sigma Cat. No. H-9377) and designated Hx-medium. The oocytes were rinsed three times in Hx-medium and oocytes of uniform size were divided into groups of CEO and NO. CEO and NO were cultured in 4-well multidishes (Nunclon, Denmark) in which each well contained 0.4 ml of Hx-medium. One control well (i.e., 35-45 oocytes cultured in identical medium with no addition of test compound) was always cultured simultaneously with 3 test wells (35-45 oocytes per well supplemented with test compound). The oocytes were cultured in a humidified atmosphere of 5% CO2 in air for 24 hours at 37° C. By the end of the culture period, the number of oocytes with germinal vesicle (hereinafter designated GV), GVBD, and polar body (herein designated PB), respectively, were counted using a stereomicroscope ([…] MZ 12). The percentage GVBD, defined as percentage of oocytes undergoing GVBD per total number of oocytes in that well, was calculated as: % GVBD=100×(number of GVBD+number of PB)/(total number oocytes). The % PB was defined as percentage of oocytes displaying one extruded polar body per total number of oocytes in that well. […] The relative effect of the tested compound is calculated as follows: Relative effect=100×((test GVBD %-negative control GVBD %)/(FF-MAS GVBD %-negative control GVBD %))."}, "LXRβ [2]": {"biological_target": "T1, LXRβ (Homo sapiens, UniProt P55055)", "T1 sequence (P55055 1-460)": "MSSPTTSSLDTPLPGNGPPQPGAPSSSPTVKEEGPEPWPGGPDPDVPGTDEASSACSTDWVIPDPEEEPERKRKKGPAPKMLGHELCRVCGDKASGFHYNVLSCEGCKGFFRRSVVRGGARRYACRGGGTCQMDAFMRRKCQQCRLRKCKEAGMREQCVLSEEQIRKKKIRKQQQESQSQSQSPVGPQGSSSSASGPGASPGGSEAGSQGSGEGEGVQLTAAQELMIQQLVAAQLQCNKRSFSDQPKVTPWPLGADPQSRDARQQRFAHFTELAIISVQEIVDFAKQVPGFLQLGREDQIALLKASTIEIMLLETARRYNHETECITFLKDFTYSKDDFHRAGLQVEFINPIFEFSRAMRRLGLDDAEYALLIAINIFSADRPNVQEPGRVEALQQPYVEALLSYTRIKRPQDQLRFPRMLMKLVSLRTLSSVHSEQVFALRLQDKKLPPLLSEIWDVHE", "test": "Recruitment of co-factors to LXRβ (HTRF assay)", "assay_type": "biochemical", "source_text": "(§2) The HTRF assay is described in Methods 25 (2001), 54-61. (HTRF is an abbreviation for homogeneous time-resolved fluorescence.)\n(§3) The EC50 value is the dose which leads to a 50% saturation."}, "FXRalpha": {"biological_target": "T2, FXRalpha (Homo sapiens, UniProt Q96RI1)", "T2 sequence (Q96RI1 1-486)": "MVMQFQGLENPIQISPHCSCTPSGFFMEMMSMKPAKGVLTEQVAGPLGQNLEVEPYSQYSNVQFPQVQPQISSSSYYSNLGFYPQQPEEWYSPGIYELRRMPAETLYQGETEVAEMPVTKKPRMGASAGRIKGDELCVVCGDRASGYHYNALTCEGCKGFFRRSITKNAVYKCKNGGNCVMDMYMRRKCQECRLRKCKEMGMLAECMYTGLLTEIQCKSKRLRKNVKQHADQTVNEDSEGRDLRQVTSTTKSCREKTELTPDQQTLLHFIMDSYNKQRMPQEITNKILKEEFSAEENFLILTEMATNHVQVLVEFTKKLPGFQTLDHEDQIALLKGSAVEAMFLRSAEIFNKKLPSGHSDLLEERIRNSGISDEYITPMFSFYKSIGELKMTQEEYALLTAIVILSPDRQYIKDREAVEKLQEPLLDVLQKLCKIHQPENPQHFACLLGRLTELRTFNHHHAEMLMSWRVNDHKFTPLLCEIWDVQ", "test": "FFMAS on human FXRalpha (FIG. 2)", "assay_type": "biochemical"}, "LXRα [3]": {"biological_target": "T3, LXRα (Homo sapiens, UniProt Q13133)", "T3 sequence (Q13133 1-447)": "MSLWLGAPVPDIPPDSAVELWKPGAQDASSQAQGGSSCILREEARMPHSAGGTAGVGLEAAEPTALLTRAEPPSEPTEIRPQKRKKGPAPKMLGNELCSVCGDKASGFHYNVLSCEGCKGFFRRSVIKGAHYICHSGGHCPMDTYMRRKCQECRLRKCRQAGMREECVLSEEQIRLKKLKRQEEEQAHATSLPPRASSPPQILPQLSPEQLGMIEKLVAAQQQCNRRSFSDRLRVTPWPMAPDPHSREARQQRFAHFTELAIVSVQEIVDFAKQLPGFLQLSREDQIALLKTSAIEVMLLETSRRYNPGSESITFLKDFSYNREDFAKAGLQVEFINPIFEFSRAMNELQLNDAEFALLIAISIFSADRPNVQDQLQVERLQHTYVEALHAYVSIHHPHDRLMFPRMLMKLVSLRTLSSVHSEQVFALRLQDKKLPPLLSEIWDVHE", "details": "Janowski et al. Nature 383 (1996); no direct binding explored; cited from earlier work"}, "LXRα [4]": {"biological_target": "T3, LXRα", "test": "Recruitment of co-factors to LXRα (HTRF assay)", "assay_type": "biochemical", "source_text": "as §2, §3"}, "naked oocytes (NO) [5]": {"system": "naked oocytes (NO)", "test": "Agonistic oocyte assay, naked oocytes (NO / NkO test)", "assay_type": "cell-based, mouse", "details": "for % GVBD + PB: NkO test", "experimental": "as §1"}, "FXRbeta": {"system": "FXRbeta", "test": "FFMAS on mouse FXRbeta (FIG. 3)", "assay_type": "biochemical"}, "naked oocytes (NO) [6]": {"system": "naked oocytes (NO)", "details": "Byskov et al. Nature 374 (1995); cited from earlier work"}, "PXR": {"biological_target": "T4, PXR (Homo sapiens, UniProt O75469)", "T4 sequence (O75469 1-434)": "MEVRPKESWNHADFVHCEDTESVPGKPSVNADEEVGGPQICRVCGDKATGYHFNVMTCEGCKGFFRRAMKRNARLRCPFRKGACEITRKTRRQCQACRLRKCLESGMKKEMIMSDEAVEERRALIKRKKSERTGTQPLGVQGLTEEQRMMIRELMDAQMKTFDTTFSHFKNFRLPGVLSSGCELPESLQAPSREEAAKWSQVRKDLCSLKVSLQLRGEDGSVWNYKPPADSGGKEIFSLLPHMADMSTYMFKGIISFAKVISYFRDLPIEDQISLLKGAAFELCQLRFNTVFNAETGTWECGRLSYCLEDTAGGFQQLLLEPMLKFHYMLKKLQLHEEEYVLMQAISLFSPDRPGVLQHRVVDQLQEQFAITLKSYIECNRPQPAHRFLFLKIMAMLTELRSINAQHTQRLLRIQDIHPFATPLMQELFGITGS", "test": "Agonist activity against PXR"}, "LXRβ [7]": {"biological_target": "T1, LXRβ", "test": "Agonist activity against LXRβ"}, "LXRα [8]": {"biological_target": "T3, LXRα", "test": "Agonist activity against LXRα"}, "[9]": {"details": "dose which leads to 50% saturation"}, "[10]": {"details": "10 μM, naked oocytes (NO) cultured in vitro for 24 hours in Hx-medium"}}}
{"smiles": "CC(C)=CCC[C@@H](C)[C@H]1CC=C2C3=C(CC[C@@]21C)[C@@]1(C)CC[C@H](O)C(C)(C)[C@@H]1CC3", "note": "[FF-MAS, 4,4-dimethyl-5α-cholesta-8,14,24-triene-3β-ol]", "values": [{"measurement": "% GVBD + PB", "setting": "[1]; Hx + 10 μM", "result": "78 ± 9", "unit": "%"}, {"measurement": "Behaviour on human LXRs (LXRβ)", "setting": "LXRβ [2]; FIGS. 1A and 1B", "result": "agonist"}, {"measurement": "EC50", "setting": "LXRβ [2]; [9]", "result": "~21", "unit": "nM"}, {"measurement": "Behaviour on human FXRalpha", "setting": "FXRalpha", "result": "partial agonist"}, {"measurement": "Transactivation of LXRα", "setting": "LXRα [3]", "result": "able to transactivate LXRα"}, {"measurement": "Behaviour on human LXRs (LXRα)", "setting": "LXRα [4]; FIGS. 1A and 1B", "result": "agonist"}, {"measurement": "EC50", "setting": "LXRα [4]; [9]", "result": "~67", "unit": "nM"}, {"measurement": "Mean Relative Effect", "setting": "naked oocytes (NO) [5]; 10 μM, NO, 24 hours, indexed: control 0, FF-MAS 100", "result": 100}, {"measurement": "Mean % GVBD", "setting": "naked oocytes (NO) [5]; [10]", "result": 86.1, "unit": "%"}, {"measurement": "Mean % PB", "setting": "naked oocytes (NO) [5]; [10]", "result": 28.5, "unit": "%"}, {"measurement": "% GVBD + PB", "setting": "naked oocytes (NO) [5]; Hx + 10 μM", "result": "90 ± 8", "unit": "%"}, {"measurement": "Behaviour on mouse FXRbeta", "setting": "FXRbeta", "result": "partial agonist"}, {"measurement": "Induction of meiosis in NO in vitro", "setting": "naked oocytes (NO) [6]", "result": "induce meiosis"}]}
{"smiles": "O=C(O)Cc1cccc(OCCCN(Cc2cccc(C(F)(F)F)c2Cl)CC(c2ccccc2)c2ccccc2)c1", "note": "[90-8684, 2-(3-{3-[[2-chloro-3-(trifluoromethyl)benzyl](2,2-diphenylethyl)amino]propoxy}phenyl)acetic acid]", "values": [{"measurement": "Activity against PXR", "setting": "PXR", "result": "showed activity"}, {"measurement": "% GVBD + PB", "setting": "[1]; Hx + 2.5 μM", "result": "69 ± 3", "unit": "%"}, {"measurement": "% GVBD + PB", "setting": "[1]; Hx + 5 μM", "result": "71 ± 6", "unit": "%"}, {"measurement": "% GVBD + PB", "setting": "[1]; Hx + 10 μM", "result": "86 ± 7", "unit": "%"}, {"measurement": "Activity against LXRβ", "setting": "LXRβ [7]", "result": "showed activity"}, {"measurement": "% GVBD + PB", "setting": "naked oocytes (NO) [5]; Hx + 5 μM", "result": "45 ± 5", "unit": "%"}, {"measurement": "% GVBD + PB", "setting": "naked oocytes (NO) [5]; Hx + 10 μM", "result": "49 ± 8", "unit": "%"}, {"measurement": "% GVBD + PB", "setting": "naked oocytes (NO) [5]; Hx + 15 μM", "result": "54 ± 5", "unit": "%"}, {"measurement": "Meiosis-inducing effect in an oocyte maturation assay", "setting": "naked oocytes (NO) [5]; mouse oocytes, NkO and CEO tests", "result": "dose-dependent maturation of the oocytes"}, {"measurement": "Activity against LXRα", "setting": "LXRα [8]", "result": "showed activity"}]}
